Assay results as given in ChEMBL document CHEMBL1201862, “PubChem BioAssay data set” (2004).
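Each compound was tested at five concentrations against cells in 96-well plates for 48 hours. Here, GI50 denotes the concentration required for 50% inhibition of growth.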 Calls of active or inactive are those of the source. Cut-off read from the data, not from the text of the source: active = GI50 up to about 1.1 µM and inactive = higher.

Legend:
Experiment in all cases: DTP human tumour cell line panel, 48 h
[1] = system: COLO 205
[2] = system: HCT-116
[3] = system: CCRF-CEM
[4] = system: T47D
[5] = system: SK-MEL-5
[6] = system: SK-OV-3
[7] = system: SF-539
[8] = system: MCF7
[9] = system: SR
[10] = system: OVCAR-3
[11] = system: SN12C
[12] = system: IGROV-1
[13] = system: NCI-H522
[14] = system: A549
[15] = system: MOLT-4
[16] = system: TK-10
[17] = system: SW-620
[18] = system: HOP-92
[19] = system: RPMI-8226

Row | SMILES | GI50 [1] | GI50 [2] | GI50 [3] | GI50 [4] | GI50 [5] | GI50 [6] | GI50 [7] | GI50 [8] | GI50 [9] | GI50 [10] | GI50 [11] | GI50 [12] | GI50 [13] | GI50 [14] | GI50 [15] | GI50 [16] | GI50 [17] | GI50 [18] | GI50 [19]
1 | COc1cc(O)c2c(=O)c3ccccc3n(C)c2c1 | > 100 µM (inactive) | 10.2 µM (inactive) | 24 µM (inactive) | > 100 µM (inactive) | 4.66 µM (inactive) | 26.8 µM (inactive) | 28.4 µM (inactive) | > 100 µM (inactive) | 7.26 µM (inactive) | > 100 µM (inactive) | > 100 µM (inactive) | > 100 µM (inactive) | 22.3 µM (inactive) | > 100 µM (inactive) | 8.43 µM (inactive) | 20.1 µM (inactive) | 63.8 µM (inactive) | 46.1 µM (inactive) | 
2 | O=Cc1ccc(Oc2c3ccccc3nc3ccccc23)cc1 | 3.42 µM (inactive) | 2.14 µM (inactive) | 2.71 µM (inactive) | 3.66 µM (inactive) | 11.5 µM (inactive) | 4.63 µM (inactive) | 1.76 µM (inactive) | 4.42 µM (inactive) | 0.053 µM (active) | 10.9 µM (inactive) | 2.85 µM (inactive) |  |  | 18.8 µM (inactive) | < 0.01 µM (active) | 6.03 µM (inactive) |  | 4.74 µM (inactive) | 2.39 µM (inactive)
3 | O=C(c1ccccc1)N1CCC(CC2(c3cc4ccccc4[nH]3)OCCO2)CC1 | 21.2 µM (inactive) | 29.3 µM (inactive) | 29.6 µM (inactive) | 41.4 µM (inactive) | 19.7 µM (inactive) | 56.8 µM (inactive) | 37.7 µM (inactive) | 19.4 µM (inactive) | 33 µM (inactive) | > 100 µM (inactive) | > 100 µM (inactive) | 42.2 µM (inactive) |  | 68.5 µM (inactive) | 19.5 µM (inactive) | 28.3 µM (inactive) | 19.5 µM (inactive) | 21.2 µM (inactive) | 2.52 µM (inactive)
4 | OC[C@@H](O)[C@H](O)[C@H](O)[C@@H](O)C1SCCCS1 | > 100 µM (inactive) | > 100 µM (inactive) |  | > 100 µM (inactive) | > 100 µM (inactive) | > 100 µM (inactive) | > 100 µM (inactive) | > 100 µM (inactive) | 63.8 µM (inactive) | > 100 µM (inactive) | > 100 µM (inactive) | > 100 µM (inactive) |  | > 100 µM (inactive) | > 100 µM (inactive) | > 100 µM (inactive) | > 100 µM (inactive) | 17.2 µM (inactive) | > 100 µM (inactive)
5 | C/C(=N\c1ccc(N(C)C)cc1)c1ccccc1 | 17.8 µM (inactive) | 16.9 µM (inactive) | 17.7 µM (inactive) | 21.7 µM (inactive) | 15.9 µM (inactive) | > 100 µM (inactive) | 56 µM (inactive) | 21.9 µM (inactive) | 19.2 µM (inactive) | 17.8 µM (inactive) | 17.4 µM (inactive) | 25.7 µM (inactive) | 16.7 µM (inactive) | 27.9 µM (inactive) | 23.9 µM (inactive) | 20.8 µM (inactive) | 17.9 µM (inactive) |  | 
6 | Nc1nc2c(C(=O)O)c3ccc([N+](=O)[O-])cc3c(=O)n2c2ccccc12 | 34.8 µM (inactive) | 16.9 µM (inactive) | 42.1 µM (inactive) | 20.4 µM (inactive) | 24.7 µM (inactive) | 21 µM (inactive) |  | 16.2 µM (inactive) | 24.3 µM (inactive) | 21.1 µM (inactive) | 18 µM (inactive) | 26.9 µM (inactive) | 19.9 µM (inactive) | 26.2 µM (inactive) | 14.4 µM (inactive) |  | 39 µM (inactive) |  | 27.5 µM (inactive)
